The target of one assay is PI3K-gamma (Homo sapiens, UniProt P48736). The experiment in a line: PI3K-gamma fluorescence polarization assay. It is filed as biochemical. The protocol:
PI3K-Alpha, PI3K-Beta, PI3K-Gamma, and PI3K-delta Fluorescence Polarization Assay Protocols
PI3-Kinase reactions were performed in 5 mM HEPES, pH 7, 2.5 mM MgCl2, and 25 μM ATP, with diC8-PI(4,5)P2 (Echelon, Salt Lake City Utah) as substrate. Nunc 384-well black polypropylene fluorescent plates were used for PI3K assays. Reactions were quenched by the addition of EDTA to a final concentration of 10 mM. Final reaction volumes were 10 μl. For evaluation of PI3K inhibitors, 5 ng of enzyme (PI3K-alpha, beta, gamma, or delta) and 2.5 μM of substrate was used per […] reaction volume, and inhibitor concentrations ranged from 100 μM to 20 μM; the final level of DMSO in reactions never exceeded 2%. Reactions were allowed to proceed for one hour at 25° C. After 1 hour, GST-tagged GRP1 (general receptor for phosphoinositides) PH domain fusion protein was added to a final concentration of 100 nM, and BODIPY-TMRI(1,3,4,5)P4 (Echelon) was also added to a final concentration of 5 nM. Final sample volumes were 25 μl with a final DMSO concentration of 0.8%. Assay Plates were read on Perkin-Elmer Envision plate readers with appropriate filters for Tamra [BODIPY-TMRI(1,3,4,5)P4]. Data obtained were used to calculate enzymatic activity and enzyme inhibition by inhibitor compounds.

In the next assay the target is PI3K-alpha (Homo sapiens, UniProt P42336). The experiment in a line: PI3K-alpha fluorescence polarization assay. It counts as biochemical. As to conditions: read-out: PI3Kα Avg. IC50. A general note: Fluorescence polarisation rises when a labelled molecule tumbles more slowly, as on binding a larger partner.

Like-named read-outs stand apart in the source and are kept apart here.

PI3K-alpha, sequence (P42336 whole entry, species assumed): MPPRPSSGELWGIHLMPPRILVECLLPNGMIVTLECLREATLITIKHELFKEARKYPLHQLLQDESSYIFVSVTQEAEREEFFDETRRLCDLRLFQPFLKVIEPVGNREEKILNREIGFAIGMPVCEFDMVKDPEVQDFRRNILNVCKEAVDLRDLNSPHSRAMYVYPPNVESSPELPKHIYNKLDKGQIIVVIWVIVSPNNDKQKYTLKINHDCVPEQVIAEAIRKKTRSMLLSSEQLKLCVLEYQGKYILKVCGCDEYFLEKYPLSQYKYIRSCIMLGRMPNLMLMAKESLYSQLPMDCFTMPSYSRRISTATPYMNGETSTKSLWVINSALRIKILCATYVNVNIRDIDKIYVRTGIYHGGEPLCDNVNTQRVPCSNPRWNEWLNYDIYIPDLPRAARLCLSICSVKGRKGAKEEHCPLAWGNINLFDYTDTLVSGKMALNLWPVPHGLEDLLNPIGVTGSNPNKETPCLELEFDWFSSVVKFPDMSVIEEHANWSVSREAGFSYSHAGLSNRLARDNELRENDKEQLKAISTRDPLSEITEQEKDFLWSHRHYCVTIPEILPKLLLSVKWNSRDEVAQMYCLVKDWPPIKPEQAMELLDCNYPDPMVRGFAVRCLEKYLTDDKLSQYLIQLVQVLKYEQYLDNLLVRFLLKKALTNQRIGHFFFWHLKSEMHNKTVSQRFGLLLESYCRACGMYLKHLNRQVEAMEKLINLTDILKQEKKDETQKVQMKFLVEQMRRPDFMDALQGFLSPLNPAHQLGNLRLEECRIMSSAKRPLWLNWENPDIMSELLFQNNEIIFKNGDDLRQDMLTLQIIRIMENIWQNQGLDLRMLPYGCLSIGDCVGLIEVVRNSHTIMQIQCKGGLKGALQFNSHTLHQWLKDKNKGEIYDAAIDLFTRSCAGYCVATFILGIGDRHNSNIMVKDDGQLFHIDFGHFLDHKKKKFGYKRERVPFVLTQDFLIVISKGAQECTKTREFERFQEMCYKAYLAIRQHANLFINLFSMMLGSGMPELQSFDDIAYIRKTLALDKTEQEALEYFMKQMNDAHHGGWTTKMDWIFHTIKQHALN
PI3K-alpha, sequence (P27986 whole entry partner, species assumed): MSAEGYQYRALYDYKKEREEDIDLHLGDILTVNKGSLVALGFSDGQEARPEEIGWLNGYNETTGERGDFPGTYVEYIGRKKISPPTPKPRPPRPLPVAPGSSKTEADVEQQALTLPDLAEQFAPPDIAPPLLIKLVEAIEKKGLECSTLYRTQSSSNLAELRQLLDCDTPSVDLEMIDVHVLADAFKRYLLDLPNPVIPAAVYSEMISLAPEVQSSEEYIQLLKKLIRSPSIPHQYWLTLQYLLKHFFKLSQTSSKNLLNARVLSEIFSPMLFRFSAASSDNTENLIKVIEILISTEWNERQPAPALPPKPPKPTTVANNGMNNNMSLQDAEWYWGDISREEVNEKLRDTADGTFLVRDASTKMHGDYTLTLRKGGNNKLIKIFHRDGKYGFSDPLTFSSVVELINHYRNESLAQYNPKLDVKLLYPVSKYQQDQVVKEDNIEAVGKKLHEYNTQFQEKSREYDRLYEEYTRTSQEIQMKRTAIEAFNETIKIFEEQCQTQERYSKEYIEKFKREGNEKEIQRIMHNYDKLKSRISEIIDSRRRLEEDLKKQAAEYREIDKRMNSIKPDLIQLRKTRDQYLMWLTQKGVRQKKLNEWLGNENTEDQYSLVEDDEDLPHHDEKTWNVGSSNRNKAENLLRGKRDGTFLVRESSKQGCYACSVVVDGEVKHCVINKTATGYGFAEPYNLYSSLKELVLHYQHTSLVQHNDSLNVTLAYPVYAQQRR
PI3K-gamma, sequence (P48736 whole entry, species assumed): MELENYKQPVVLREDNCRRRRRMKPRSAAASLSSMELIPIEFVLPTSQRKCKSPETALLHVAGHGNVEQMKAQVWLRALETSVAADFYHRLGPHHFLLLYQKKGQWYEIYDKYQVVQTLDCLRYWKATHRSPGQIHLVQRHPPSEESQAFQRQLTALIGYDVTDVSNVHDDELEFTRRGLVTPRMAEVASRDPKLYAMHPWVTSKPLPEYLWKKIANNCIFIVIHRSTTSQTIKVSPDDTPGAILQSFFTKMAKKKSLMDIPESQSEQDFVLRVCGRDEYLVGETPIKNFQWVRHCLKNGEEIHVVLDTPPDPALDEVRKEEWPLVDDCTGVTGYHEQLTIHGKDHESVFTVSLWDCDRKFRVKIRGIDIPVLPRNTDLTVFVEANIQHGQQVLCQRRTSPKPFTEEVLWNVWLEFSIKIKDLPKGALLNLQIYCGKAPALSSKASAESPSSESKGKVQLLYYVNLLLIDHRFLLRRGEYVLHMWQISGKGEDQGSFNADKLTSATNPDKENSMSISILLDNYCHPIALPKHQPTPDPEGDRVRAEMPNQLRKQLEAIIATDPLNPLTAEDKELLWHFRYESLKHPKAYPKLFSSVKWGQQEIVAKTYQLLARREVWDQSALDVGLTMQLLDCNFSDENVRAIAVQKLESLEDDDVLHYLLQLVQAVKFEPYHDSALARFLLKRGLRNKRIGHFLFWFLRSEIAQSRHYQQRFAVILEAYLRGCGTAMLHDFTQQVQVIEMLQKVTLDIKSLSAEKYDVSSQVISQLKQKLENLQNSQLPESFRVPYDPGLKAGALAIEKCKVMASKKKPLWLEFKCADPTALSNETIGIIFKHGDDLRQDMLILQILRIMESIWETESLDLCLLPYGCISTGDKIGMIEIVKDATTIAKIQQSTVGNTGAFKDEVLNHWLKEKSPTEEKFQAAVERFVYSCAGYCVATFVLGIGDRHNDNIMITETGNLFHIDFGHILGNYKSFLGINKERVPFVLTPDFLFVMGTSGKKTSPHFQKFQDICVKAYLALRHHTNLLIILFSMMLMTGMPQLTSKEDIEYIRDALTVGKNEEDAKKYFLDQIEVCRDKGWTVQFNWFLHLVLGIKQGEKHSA

The IC50 is the concentration needed to halve the response being measured. Regarding `COc1ccc2[nH]cc(/C=C3\Oc4ccc(NC(=O)NC5CCCCC5)cc4C3=O)c2c1` [Compound 488, 1-cyclohexyl-3-{(2Z)-2-[(5-methoxy-1H-indol-3-yl)methylene]-3-oxo-2,3-dihydro-1-benzofuran-5-yl}urea], the 50% inhibitory concentration (IC50) against PI3K-gamma (PI3Kγ Avg. IC50) and at PI3K-alpha was above 10000 nM each time.

Regarding `COc1ccc2c(c1)c(/C=C1\Oc3cc(O)ccc3C1=O)cn2CCCC#N` [Compound 511, 4-{3-[(Z)-(6-hydroxy-3-oxo-1-benzofuran-2(3H)-ylidene)methyl]-5-methoxy-1Hindol-1-yl}butanenitrile], the IC50 against PI3K-gamma (PI3Kγ Avg. IC50) was found to be 154 nM; at PI3K-alpha, 21 nM.

Consider `CCc1c(/C=C2\Oc3cc(O)cc(O)c3C2=O)c2cc(OC)ccc2n1CCCC#N` [Compound 493, 4-{3-[(Z)-(4,6-dihydroxy-3-oxo-1-benzofuran-2(3H)-ylidene)methyl]-2-ethyl-5-methoxy-1H-indol-1-yl}butanenitrile], for which the IC50 against PI3K-gamma (PI3Kγ Avg. IC50) came to 15.5 nM; at PI3K-alpha, 3 nM.

Take `CNC(=O)Nc1ccc2c(c1)C(=O)/C(=C/c1c(C)n(CCCN3CCC(O)CC3)c3ccc(OC)cc13)O2` [Compound 587, 1-[(2Z)-2-({1-[3-(4-hydroxypiperidin-1-yl)propyl]-5-methoxy-2-methyl-1H-indol-3-yl}methylene)-3-oxo-2,3-dihydro-1-benzofuran-5-yl]-3-methylurea]: the IC50 at PI3K-gamma (PI3Kγ Avg. IC50) worked out at 982 nM; at PI3K-alpha, 4 nM.

In the case of `COc1ccc2c(c1)c(/C=C1\Oc3ccc(NC(=O)NCCN(C)C)cc3C1=O)cn2CCN1CCN(C)CC1` [Compound 574, 1-[2-(dimethylamino)ethyl]-3-[(2Z)-2-({5-methoxy-1-[2-(4-methylpiperazin-1-yl)ethyl]-1H-indol-3-yl}methylene)-3-oxo-2,3-dihydro-1-benzofuran-5-yl]urea], the concentration for half-maximal inhibition (IC50) at PI3K-gamma (PI3Kγ Avg. IC50) was determined as 2990 nM; at PI3K-alpha, 97.5 nM.

As for `COc1ccc2[nH]cc(/C=C3\Oc4ccc(NC(=O)Nc5ccccc5)cc4C3=O)c2c1` [Compound 485, 1-{(2Z)-2-[(5-methoxy-1H-indol-3-yl)methylene]-3-oxo-2,3-dihydro-1-benzofuran-5-yl}-3-phenylurea], the IC50 against PI3K-gamma (PI3Kγ Avg. IC50) and on PI3K-alpha was above 10000 nM in each case.

For the compound `COc1ccc2[nH]cc(/C=C3\Oc4cc(C#N)ccc4C3=O)c2c1` [Compound 508, (2Z)-2-[(5-methoxy-1H-indol-3-yl)methylene]-3-oxo-2,3-dihydro-1-benzofuran-6-carbonitrile], the concentration for half-maximal inhibition (IC50) is above 10000 nM against PI3K-gamma (PI3Kγ Avg. IC50) and 8500 nM at PI3K-alpha.

On to `CNC(=O)Nc1ccc2c(c1)C(=O)/C(=C/c1cn(C)c3cccc(-c4ccccc4)c13)O2` [Compound 528, 1-methyl-3-{(2Z)-2-[(1-methyl-4-phenyl-1H-indol-3-yl)methylene]-3-oxo-2,3-dihydro-1-benzofuran-5-yl}urea], for which the IC50 on PI3K-gamma (PI3Kγ Avg. IC50) and on PI3K-alpha was above 10000 nM each time.

`C=CCNC(=O)Nc1ccc2c(c1)C(=O)/C(=C/c1cn(CCN3CCN(C)CC3)c3ccc(OC)cc13)O2` [Compound 550, 1-allyl-3-[(2Z)-2-({5-methoxy-1-[2-(4-methylpiperazin-1-yl)ethyl]-1H-indol-3-yl}methylene)-3-oxo-2,3-dihydro-1-benzofuran-5-yl]urea]: the IC50 is 1130 nM on PI3K-gamma (PI3Kγ Avg. IC50) and 64.5 nM at PI3K-alpha.

For `CNC(=O)Nc1ccc2c(c1)C(=O)/C(=C/c1c(CN3CCN(C)CC3)[nH]c3ccc(OC)cc13)O2` [Compound 615, 1-[(2Z)-2-({5-methoxy-2-[(4-methylpiperazin-1-yl)methyl]-1H-indol-3-yl}methylidene)-3-oxo-2,3-dihydro-1-benzofuran-5-yl]-3-methylurea], the concentration for half-maximal inhibition (IC50) turned out to be 136 nM against PI3K-gamma (PI3Kγ Avg. IC50) and 9.5 nM on PI3K-alpha.

On to `CCNC(=O)Nc1ccc2c(c1)C(=O)/C(=C/c1cn(CCCN(C)C)c3ccc(OC)cc13)O2` [Compound 547, 1-[(2Z)-2-({1-[3-(dimethylamino)propyl]-5-methoxy-1H-indol-3-yl}methylene)-3-oxo-2,3-dihydro-1-benzofuran-5-yl]-3-ethylurea], for which the IC50 at PI3K-gamma (PI3Kγ Avg. IC50) came out at 2120 nM; on PI3K-alpha it was 63 nM.

As to `COc1ccc2[nH]cc(C=C3Oc4c(O)cccc4C3=O)c2c1` [Compound 482, 7-hydroxy-2-[(5-methoxy-1H-indol-3-yl)methylene]-1-benzofuran-3(2H)-one], the IC50 on PI3K-gamma (PI3Kγ Avg. IC50) and at PI3K-alpha was above 10000 nM each time.

Regarding `CNC(=O)Nc1ccc2c(c1)C(=O)/C(=C/c1c(C)n(CCCN3CCOCC3)c3ccc(OC)cc13)O2` [Compound 585, 1-[(2Z)-2-{[5-methoxy-2-methyl-1-(3-morpholin-4-ylpropyl)-1H-indol-3-yl]methylene}-3-oxo-2,3-dihydro-1-benzofuran-5-yl]-3-methylurea], the IC50 against PI3K-gamma (PI3Kγ Avg. IC50) is 138 nM; at PI3K-alpha it was 11 nM.

Consider `COc1ccc2[nH]cc(C=C3Oc4cc(OS(=O)(=O)C(F)(F)F)ccc4C3=O)c2c1` [Compound 494, 2-[(5-methoxy-1H-indol-3-yl)methylene]-3-oxo-2,3-dihydro-1-benzofuran-6-yl trifluoromethanesulfonate], for which the values for the IC50 against PI3K-gamma (PI3Kγ Avg. IC50) and at PI3K-alpha were 9350 nM and above 10000 nM, respectively.

As for “6,7-dihydroxy-2-{[5-methoxy-2-methyl-1-(4-morpholin-4-ylbutyl)-1H-indol-3-yl]methylene}-1-benzofuran-3(2H)-one [Example 133]”, the IC50 on PI3K-gamma (read-out: PI3Kγ Avg. IC50) was found to be 954 nM; at PI3K-alpha, 230 nM.

Consider `COc1ccc2[nH]cc(/C=C3\Oc4ccc(NC(=O)Nc5ccc(N(C)C)cc5)cc4C3=O)c2c1` [Compound 492, 1-[4-(dimethylamino)phenyl]-3-{(2Z)-2-[(5-methoxy-1H-indol-3-yl)methylene]-3-oxo-2,3-dihydro-1-benzofuran-5-yl}urea], for which the IC50 is above 10000 nM at PI3K-gamma (PI3Kγ Avg. IC50) and 656 nM at PI3K-alpha.

For the compound `CNC(=O)Nc1ccc2c(c1)C(=O)/C(=C/c1c(C#N)[nH]c3ccc(OC)cc13)O2` [Compound 604, 1-{(2Z)-2-[(2-cyano-5-methoxy-1H-indol-3-yl)methylidene]-3-oxo-2,3-dihydro-1-benzofuran-5-yl}-3-methylurea], the IC50 at PI3K-gamma (PI3Kγ Avg. IC50) is above 10000 nM; at PI3K-alpha it was 10.5 nM.

For the compound `COc1ccc2[nH]cc(/C=C3\Oc4ccc(C#N)cc4C3=O)c2c1` [Compound 523, (2Z)-2-[(5-methoxy-1H-indol-3-yl)methylene]-3-oxo-2,3-dihydro-1-benzofuran-5-carbonitrile], the IC50 on PI3K-gamma (PI3Kγ Avg. IC50) and on PI3K-alpha was above 10000 nM in each case.

`COc1ccc2[nH]cc(/C=C3\Oc4ccc(-c5nnn[nH]5)cc4C3=O)c2c1` [Compound 524, (2Z)-2-[(5-methoxy-1H-indol-3-yl)methylene]-5-(1H-tetrazol-5-yl)-1-benzofuran-3(2H)-one]: the figures for the IC50 at PI3K-gamma (PI3Kγ Avg. IC50) and on PI3K-alpha were above 10000 nM and 12000 nM, respectively.

Take `CNC(=O)Nc1ccc2c(c1)C(=O)/C(=C/c1cn(CCCN(C)C)c3ccc(OC)cc13)O2` [Compound 520, 1-[(2Z)-2-({1-[3-(dimethylamino)propyl]-5-methoxy-1H-indol-3-yl}methylene)-3-oxo-2,3-dihydro-1-benzofuran-5-yl]-3-methylurea]: the values for the IC50 at PI3K-gamma (PI3Kγ Avg. IC50) and on PI3K-alpha were 4020 nM and 72.5 nM, respectively.

As to `COc1ccc2c(c1)c(/C=C1\Oc3ccc(NC(=O)NCCCO)cc3C1=O)cn2CCCN(C)C` [Compound 568, 1-[(2Z)-2-({1-[3-(dimethylamino)propyl]-5-methoxy-1H-indol-3-yl}methylene)-3-oxo-2,3-dihydro-1-benzofuran-5-yl]-3-(3-hydroxypropyl)urea], the IC50 stood at 3390 nM against PI3K-gamma (PI3Kγ Avg. IC50) and 477 nM on PI3K-alpha.

For the compound `CNC(=O)Nc1ccc2c(c1)C(=O)/C(=C/c1c(C3=CCNCC3)n(CCN3CCN(C)CC3)c3ccc(OC)cc13)O2` [Compound 607, 1-[(2Z)-2-({5-methoxy-1-[2-(4-methylpiperazin-1-yl)ethyl]-2-(1,2,3,6-tetrahydropyridin-4-yl)-1H-indol-3-yl}methylidene)-3-oxo-2,3-dihydro-1-benzofuran-5-yl]-3-methylurea], the figures for the IC50 at PI3K-gamma (PI3Kγ Avg. IC50) and on PI3K-alpha were 4220 nM and 4.5 nM, respectively.

Consider `COc1ccc2c(c1)c(/C=C1\Oc3ccc(NC(=O)NCCCCN)cc3C1=O)cn2CCN1CCN(C)CC1` [Compound 565, 1-(4-aminobutyl)-3-[(2Z)-2-({5-methoxy-1-[2-(4-methylpiperazin-1-yl)ethyl]-1Hindol-3-yl}methylene)-3-oxo-2,3-dihydro-1-benzofuran-5-yl]urea], for which the results for the IC50 against PI3K-gamma (PI3Kγ Avg. IC50) and on PI3K-alpha were above 10000 nM and 114 nM, respectively.

For the compound `CNC(=O)Nc1ccc2c(c1)C(=O)/C(=C/c1c(-c3c(C)noc3C)[nH]c3ccc(OC)cc13)O2` [Compound 581, 1-[(2Z)-2-{[2-(3,5-dimethylisoxazol-4-yl)-5-methoxy-1H-indol-3-yl]methylene}-3-oxo-2,3-dihydro-1-benzofuran-5-yl]-3-methylurea], the half-maximal inhibitory concentration (IC50) was 26.5 nM against PI3K-gamma (PI3Kγ Avg. IC50) and 2 nM on PI3K-alpha.

Turning to `COc1cc(-c2cncnc2)c2c(c1)c(/C=C1\Oc3cc(O)cc(O)c3C1=O)cn2CCCC#N` [Compound 503, 4-{3-[(Z)-(4,6-dihydroxy-3-oxo-1-benzofuran-2(3H)-ylidene)methyl]-5-methoxy-7-pyrimidin-5-yl-1H-indol-1-yl}butanenitrile], the IC50 against PI3K-gamma (PI3Kγ Avg. IC50) is 811 nM; on PI3K-alpha, 106 nM.

Values taken from patent US20090311217A1, “3-SUBSTITUTED-1H-INDOLE COMPOUNDS, THEIR USE AS MTOR KINASE AND PI3 KINASE INHIBITORS, AND THEIR SYNTHESES” (priority 2008, published 2009).
